Measured values published in patent US11840570B2, “Pharmaceutical combination and method for regulation of tumor microenvironment and immunotherapy” (Great Novel Therapeutics Biotech & Medicals Corporation, priority 2018, dated 2023).

Tested on: CT26 colon tumor
Experiment: Anti-cancer activity in CT26 tumor-bearing BALB/c mice
Format: in vivo, mouse
Details: anti-PD-1 10 mg/kg, chidamide 50 mg/kg, metformin 100 mg/kg
Description: Animal research was approved and overseen by The Taipei Medical University Institutional Animal Care and Use Committee (TMU IACUC). Six- to eight-wk-old male BALB/C mice (BioLASCO Taiwan) were used for all animal experiments. JC (1×10^7), or CT26 (5×10^6˜1×10^7) cancer cells were inoculated by s.c. into the right flank of each mouse. Tumors were allowed to grow for 11 d (tumor size about 200-300 mm^3) before randomization and treatment. CT26-bearing and JC-bearing mice were given 10 or 2.5 mg/kg of anti-IgG, anti-PD-1 and/or anti-PD-L1 and anti-CTLA-4 (2.5 mg/kg) antibodies i.p. on days 11, 14, 17, 20, 23, and 26 post-tumor implantation, and all antibodies were diluted to appropriate concentrations in 100 μL of sterile PBS (pH 7.4) (Invitrogen Life Technologies). Celecoxib, chidamide, metformin, mocetinostat, entinostat, aspirin, and ibuprofen treatments were administrated orally on day 11 post-tumor implantation. Daily treatment with celecoxib (12.5, 25.0, and 50 mg/kg) or metformin (100 or 200 mg/kg) was performed from days 11 to 26. Chidamide was administered to treat tumor bearing mice at doses of 6.25, 12.5, 25, and 50 mg/kg or as a single dose. Chidamide was orally administered daily from days 11 to 26. Entinostat was orally administered at a dose of 20 mg/kg every two days from days 11 to 25. Mocetinostat was orally administered at a dose of 30 mg/kg daily treatment from days 11 to 26. Aspirin and ibuprofen was orally administered at a dose of 50 mg/kg daily treatment from days 11 to 26. The anti-cancer activity was measured from the start of the treatment of tumor growth until the tumor volume reached 3,000 mm^3. Tumor volume was calculated as length×width^2×0.5.
To understand the anti-cancer activity of anti-PD-1 antibody on the CT-26 colon cancer cell -bearing BALB/c mice, the anti-PD-1 antibody was administered into CT26-bearing mice at 10 mg/kg of anti-PD-1 and/or anti-IgG antibodies i.p. on days 11, 14, 17, 20, 23, and 26 of post tumor implantation. […] The response rate was evaluated by several assays.

## CN(C)C(=N)N=C(N)N [metformin]
FIG. 2A/2B
  tumor growth inhibition / anti-cancer activity: markedly inhibited
FIG. 2B, entinostat 20 mg/kg
  mice with PD: five
  mice with SD: one
